Source: paper PMC5789148, “Embelin Restores Carbapenem Efficacy against NDM-1-Positive Pathogens” (Frontiers in Microbiology, 2018)

Legend:
Assay type in all cases: biochemical
[1] = biological target: T1, NDM-1 (New Delhi metallo-β-lactamase-1) (Klebsiella pneumoniae, UniProt C7C422); assay: single-concentration ([…]) meropenem hydrolysis screen with purified NDM-1; details: read-out: % inhibition at 20 μM
T1 construct: gene blaNDM-1

[2] = biological target: T1, NDM-1 (New Delhi metallo-β-lactamase-1); assay: meropenem hydrolysis inhibition with purified NDM-1, […] nm (IC50 […])
[3] = biological target: VIM-1 (Pseudomonas aeruginosa, UniProt A0A0F7KYQ8); assay: meropenem hydrolysis inhibition assay
[4] = biological target: IMP-1 (Serratia marcescens, UniProt P52699); assay: meropenem hydrolysis inhibition assay
IMP-1, sequence (P52699 19-246 limits assumed): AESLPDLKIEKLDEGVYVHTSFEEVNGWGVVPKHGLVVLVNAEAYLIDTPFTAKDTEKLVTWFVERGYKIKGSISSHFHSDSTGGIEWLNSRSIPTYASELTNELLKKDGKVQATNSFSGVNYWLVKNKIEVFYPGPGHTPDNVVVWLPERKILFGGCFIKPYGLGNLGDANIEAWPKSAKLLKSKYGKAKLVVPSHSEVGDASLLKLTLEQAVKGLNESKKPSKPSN

T1 sequence (C7C422 29-270 limits assumed): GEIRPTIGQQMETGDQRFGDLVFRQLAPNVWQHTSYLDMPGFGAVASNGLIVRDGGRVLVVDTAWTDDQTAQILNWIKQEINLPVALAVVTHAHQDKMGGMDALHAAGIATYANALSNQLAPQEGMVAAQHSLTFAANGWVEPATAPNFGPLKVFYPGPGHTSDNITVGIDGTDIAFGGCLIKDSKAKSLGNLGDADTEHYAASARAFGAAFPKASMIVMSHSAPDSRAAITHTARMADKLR

| Structure (SMILES) | inhibition at 20 µM [1] [%] | Ki [2] [µM] | IC50 [3] [µM] | IC50 [4] [µM] |
| --- | --- | --- | --- | --- |
| COc1cc(/C=C/C(=O)CC(=O)/C=C/c2ccc(O)c(OC)c2)ccc1O [curcumine] | > 20 | – | – | – |
| CCCCCCCCCCCC1=C(O)C(=O)C=C(O)C1=O [embelin] | – | 0.19 ± 0.02 | ~200 | ~100 |
| Oc1ccc(/C=C/c2cc(O)cc(O)c2)cc1 [resveratrol] | > 20 | – | – | – |
